Here are results for 34 compounds from US5464861A, “2-thioindoles (selenoindoles) and related disulfides (selenides) which inhibit protein tyrosine kinases and which have antitumor properties” (Warner-Lambert, priority 1993, dated 1995).

Experiment [1] relates to Swiss 3T3 mouse fibroblasts. Kind of experiment: Growth inhibition assay, Swiss 3T3 fibroblasts. Type of experiment: cell-based.
Protocol: Swiss 3T3 mouse fibroblasts were maintained in dMEM/F12 media containing 10% fetal calf serum. […] The cells were grown at 37° C. under 5% CO2 for 72 hours and then counted by Coulter counter. The data were expressed as the concentration of inhibitor necessary to decrease the growth rate by 50%.
Experiment [2] has as its target T1, epidermal growth factor receptor tyrosine kinase (Homo sapiens, UniProt P00533).
T1 construct: A native 170,000 epidermal growth factor receptor-kinase complex from shed plasma membrane vesicles; endogenous in cells
The experiment in a line: EGF receptor tyrosine kinase assay (P^32 incorporation in GAT). Type of experiment: biochemical. Particulars: for inhibition at 100 µM: EGRF-R, read-out: % Inhibition at 100 μM (EGFR TK). The procedure:
At the time of assay, membranes were solubilized in 4% Triton X-100 and glycerol. The reaction is carried out in wells of a 96-well microtiter plate in a total volume of […]. Buffer containing 20 mMHepes (pH 7.4), 15 mMMgCl2, mM MnCl2, and 0.02% BSA followed by […] of membrane protein and 150 ng of epidermal growth factor. The plates are incubated for 10 minutes at room temperature to activate the receptor kinase. […] ATP plus or minus compound are added and incubated 10 minutes at room temperature.

Experiment [3] deals with T2, human PDGF β receptor intracellular tyrosine kinase domain (Homo sapiens, UniProt P09619).
T2 construct: human PDGF β receptor intracellular tyrosine kinase domain; made in house; host or cells: SF9 insect cells, recombinant baculovirus; cell lysates used
T2 sequence (P09619 554-1106 limits assumed): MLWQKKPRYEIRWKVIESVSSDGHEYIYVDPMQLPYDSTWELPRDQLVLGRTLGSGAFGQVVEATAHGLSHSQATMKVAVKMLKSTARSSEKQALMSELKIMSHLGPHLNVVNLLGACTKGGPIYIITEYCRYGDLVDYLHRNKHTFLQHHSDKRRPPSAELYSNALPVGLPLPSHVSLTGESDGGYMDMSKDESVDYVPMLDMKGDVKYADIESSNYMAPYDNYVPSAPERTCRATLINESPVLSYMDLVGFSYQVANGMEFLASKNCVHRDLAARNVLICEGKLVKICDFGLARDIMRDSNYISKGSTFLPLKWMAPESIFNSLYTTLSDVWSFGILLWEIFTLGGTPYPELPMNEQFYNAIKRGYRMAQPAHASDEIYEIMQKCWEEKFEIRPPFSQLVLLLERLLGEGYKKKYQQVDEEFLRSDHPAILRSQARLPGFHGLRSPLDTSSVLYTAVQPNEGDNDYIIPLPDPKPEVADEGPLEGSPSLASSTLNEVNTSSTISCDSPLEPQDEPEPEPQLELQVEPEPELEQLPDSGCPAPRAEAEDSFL
The experiment in a line: PDGF receptor tyrosine kinase inhibition assay (P^32 incorporation in Glu-Tyr). It is filed as biochemical. To be noted: for inhibition at 100 µM: PDGF-R, read-out: % Inhibition at 100 μM (PDGFR TK).
Protocol: Recombinant baculovirus containing human PDGF β receptor intracellular tyrosine kinase domain was used to infect SF9 cells to overexpress the protein, and cell lysates were used for the assay. The ability of the tyrosine kinase to phosphorylate glutamate tyrosine substrate in the presence of P^32 -ATP and inhibitor was measured by counting the incorporation of P^32 in Glu-Tyr in TCAprecipitable material.

Where [4] appears, read: Swiss-3T3, 72 h, read-out: IC50 growth inhibition.
Setting [5] is: Table 2, EGRF-R, IC50 entries, read-out: IC50 (EGFR TK).
Where [6] appears, read: Swiss 3T3, 72 hours, Table 2, read-out: IC50 growth inhibition.

Read-outs that look alike come from different tables or passages of the source. Where only a bound is given, the exact number is not on record here.

T1 sequence (P00533 25-1210): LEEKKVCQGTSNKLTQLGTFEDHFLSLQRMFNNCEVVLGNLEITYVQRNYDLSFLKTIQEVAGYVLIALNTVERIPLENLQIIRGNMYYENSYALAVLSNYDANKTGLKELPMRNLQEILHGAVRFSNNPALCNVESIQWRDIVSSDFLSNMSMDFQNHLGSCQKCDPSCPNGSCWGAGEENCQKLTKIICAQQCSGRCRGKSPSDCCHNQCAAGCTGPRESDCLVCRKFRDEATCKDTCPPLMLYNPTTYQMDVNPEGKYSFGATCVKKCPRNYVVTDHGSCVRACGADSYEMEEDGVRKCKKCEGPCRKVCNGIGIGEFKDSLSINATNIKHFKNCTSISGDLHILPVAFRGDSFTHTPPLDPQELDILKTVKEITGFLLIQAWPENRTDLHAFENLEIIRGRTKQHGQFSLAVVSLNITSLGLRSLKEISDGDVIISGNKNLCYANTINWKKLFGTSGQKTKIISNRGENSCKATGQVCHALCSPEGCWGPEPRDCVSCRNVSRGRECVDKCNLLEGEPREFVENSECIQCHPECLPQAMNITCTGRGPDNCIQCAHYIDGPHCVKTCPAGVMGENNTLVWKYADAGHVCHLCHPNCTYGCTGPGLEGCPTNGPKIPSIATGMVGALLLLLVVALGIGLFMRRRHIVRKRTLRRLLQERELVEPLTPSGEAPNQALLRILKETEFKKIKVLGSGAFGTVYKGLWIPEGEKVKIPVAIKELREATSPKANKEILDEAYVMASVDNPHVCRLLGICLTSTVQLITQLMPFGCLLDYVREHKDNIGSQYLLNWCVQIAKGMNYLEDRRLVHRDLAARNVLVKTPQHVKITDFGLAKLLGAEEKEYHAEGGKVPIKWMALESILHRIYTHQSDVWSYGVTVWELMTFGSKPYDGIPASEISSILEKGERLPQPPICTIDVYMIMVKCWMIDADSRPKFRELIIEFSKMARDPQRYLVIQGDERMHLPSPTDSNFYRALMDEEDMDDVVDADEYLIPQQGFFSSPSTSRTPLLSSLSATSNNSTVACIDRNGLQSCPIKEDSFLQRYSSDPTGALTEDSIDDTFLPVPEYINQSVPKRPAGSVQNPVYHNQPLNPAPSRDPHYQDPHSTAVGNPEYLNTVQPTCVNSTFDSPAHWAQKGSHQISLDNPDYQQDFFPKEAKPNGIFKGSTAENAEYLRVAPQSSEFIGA
T1 sequence (P01133 971-1023 partner limits assumed): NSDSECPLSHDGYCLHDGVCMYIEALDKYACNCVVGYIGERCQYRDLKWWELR

For orientation: IC50 means the midpoint of a concentration-inhibition curve. Broadly, the inhibition is the drop in the measured response relative to a control, in per cent. On to `NC(Cc1c(SSc2[nH]c3ccccc3c2CC(N)C(=O)NCc2ccccc2)[nH]c2ccccc12)C(=O)NCc1ccccc1` (racemic) [Compound 62, 2,2'-dithiobis[α-amino-N-benzyl-3-(3-indolyl)propanamide]], for which the IC50 in experiment [1] (setting [4]) came to 5.3 µM; in experiment [2] (setting [5]), 6 µM. The inhibition at 100 µM in experiment [3] is 71%.
Turning to `O=C(O)Cc1c(SSSc2[nH]c3ccccc3c2CC(=O)O)[nH]c2ccccc12` [Compound 30, bis[indolyl-3-acetic acid-(2)]trisulfide], the values for the half-inhibitory concentration (IC50) in experiment [1] (setting [6]) and in experiment [2] (setting [5]) were 8 µM and 9.3 µM, respectively.
Take `Cn1c(SSc2c(C(=O)NCc3ccccc3)c3ccccc3n2C)c(C(=O)NCc2ccccc2)c2ccccc21` [Compound 98, bis[N-benzyl 1-methylindolyl-3-carboxamide-(2)]disulfide]: the figures for the IC50 in experiment [1] (setting [6]) and in experiment [2] (setting [5]) were 5 to 12 µM and 1.5 µM, respectively. Further, in experiment [3], the inhibition at 100 µM was found to be 9%.
Consider `O=C(CCc1c(SSc2[nH]c3ccccc3c2CCC(=O)NCc2ccccc2)[nH]c2ccccc12)NCc1ccccc1` [Compound 47], for which the IC50 turned out to be 6 µM in experiment [1] (setting [6]) and 0.85 µM in experiment [2] (setting [5]).
As to `Cn1c(SSc2c(C(=O)Nc3ccccc3)c3cccnc3n2C)c(C(=O)Nc2ccccc2)c2cccnc21` [Compound 83, 2,2'-dithiobis [N-phenyl-1-methyl-7-azaindolyl-3-carboxamide]], the half-inhibitory concentration (IC50) in experiment [1] (setting [6]) came to 10 µM; in experiment [2] (setting [5]) it was 22.3 µM. Further, the inhibition at 100 µM in experiment [3] was 57%.
With `COc1cccc2c(C(=O)Nc3ccccc3)c(SSc3c(C(=O)Nc4ccccc4)c4cccc(OC)c4n3C)n(C)c12` [Compound 82, bis[N-phenyl 7-methoxy-1-methylindolyl-3-carboxamide-(2)]disulfide], the IC50 in experiment [1] (setting [6]) was 24 µM; in experiment [2] (setting [5]), 6.5 µM.
The like results for `O=C(O)Cc1c(SSc2[nH]c3ccccc3c2CC(=O)O)[nH]c2ccccc12` [Compound 29, bis[indolyl-3-acetic acid-(2)] disulfide] were, in that order, 25 to 100 µM and 8.3 µM.
Regarding `O=C(Cc1c(SSc2[nH]c3ccccc3c2CC(=O)NCc2ccccc2)[nH]c2ccccc12)NCc1ccccc1` [Compound 34, 2,2'-dithiobis[N-benzyl 2-(3-indolyl)acetamide]], the 50% inhibitory concentration (IC50) worked out at 2.7 µM in experiment [1] (setting [6]) and 38 µM in experiment [2] (setting [5]). Also, in experiment [3], the inhibition at 100 µM was determined as 12.8%.
For `COC(=O)Cc1c(SSc2[nH]c3ccccc3c2CC(=O)OC)[nH]c2ccccc12` [Compound 27, bis[methylindolyl-3-acetate-(2)]disulfide], the IC50 is 2.3 µM in experiment [1] (setting [6]) and 17.8 µM in experiment [2] (setting [5]).
On to `CCOC(=O)CCc1c(SSc2[nH]c3ccccc3c2CCC(=O)OCC)[nH]c2ccccc12` [Compound 38, bis[ethylindolyl-3-propanoate-(2)] disulfide], for which the IC50 in experiment [1] (setting [6]) was determined as 1.6 µM. The inhibition at 100 µM in experiment [2] is 36.5%.
In the case of `CCN(CC)CCNC(=O)c1c([Se][Se]c2c(C(=O)NCCN(CC)CC)c3ccccc3n2C)n(C)c2ccccc12` [Compound 132, 2,2'-diselenobis [N-[2-(diethylamino)ethyl]-1-methyl-1H-indole-3-carboxamide]], the IC50 in experiment [1] (setting [4]) is 20 µM; in experiment [2] (read-out: IC50 (EGFR TK)), 4.7 µM.
Regarding `Cc1ccc(S(=O)(=O)c2c(SSc3[nH]c4ccccc4c3S(=O)(=O)c3ccc(C)cc3)[nH]c3ccccc23)cc1` [Compound 99, bis[3-(4-methylphenylsulfonyl)-2-indolyl]disulfide], the half-maximal inhibitory concentration (IC50) in experiment [1] (setting [4]) amounted to 2.8 µM; in experiment [2] (setting [5]) it was 40 µM. For the same compound, the inhibition at 100 µM in experiment [3] was 19%.
`CNC(=O)c1c(SSc2c(C(=O)NC)c3ccccc3n2C)n(C)c2ccccc12` [Compound 97, bis[N-methyl 1-methylindolyl-3-carboxamide-(2)]disulfide]: the IC50 in experiment [1] (setting [6]) turned out to be 1.8 µM; in experiment [2] (setting [5]), 10.1 µM; in experiment [3] (Table 2, PDGF-R, IC50 entries, read-out: IC50 (PDGFR TK)), 28.1 µM.
For the compound `COC(=O)CCC1C(=S)Nc2ccccc21` (stereo not drawn) [Compound 9, methyl 3-(2-thioxo-3-indolinyl)propanoate], the IC50 in experiment [1] (setting [6]) turned out to be 16 µM. Moreover, in experiment [2], the inhibition at 100 µM turned out to be 52%.
As for `Cn1c(SSc2c(C(=O)Nc3ccccc3)c3cc(Cl)ccc3n2C)c(C(=O)Nc2ccccc2)c2cc(Cl)ccc21` [Compound 73, bis[N-phenyl 5-chloro-1-methylindolyl-3-carboxamide-(2)]disulfide], the figures for the IC50 in experiment [1] (setting [6]) and in experiment [2] (setting [5]) were 9.3 µM and 4.3 µM, respectively. The inhibition at 100 µM in experiment [3] was 21%.
Take `CNC(=O)c1c([Se][Se]c2c(C(=O)NC)c3ccccc3n2C)n(C)c2ccccc12` [Compound 131, 2,2'-diselenobis [N,1-dimethyl-1H -indole-3-carboxamide]]: the results for the IC50 in experiment [1] (setting [4]) and in experiment [2] were 5.5 µM and 5.8 µM, respectively.
As for `COc1cccc2c1c(C(=O)Nc1ccccc1)c(SSc1c(C(=O)Nc3ccccc3)c3c(OC)cccc3n1C)n2C` [Compound 79, bis [N-phenyl 4-methoxy-1-methyl indolyl-3-carboxamide-(2)]disulfide], the IC50 in experiment [1] (setting [6]) came out at 1.9 µM. For the same compound, the inhibition at 100 µM in experiment [2] was 11%; in experiment [3] it was 20%.
In the case of `COC(=O)Cc1c(SSSc2[nH]c3ccccc3c2CC(=O)OC)[nH]c2ccccc12` [Compound 31, bis[methylindolyl-3-acetate-(2)]trisulfide], the results for the half-inhibitory concentration (IC50) in experiment [1] (setting [6]) and in experiment [2] (setting [5]) were 1 µM and 35.5 µM, respectively.
On to `CCN(CC)CCNC(=O)c1c([Se][Se]c2[nH]c3ccccc3c2C(=O)NCCN(CC)CC)[nH]c2ccccc12` [Compound 134, 2,2'-diselenobis [N-[2-(diethylamino)ethyl]-1H-indole-3-carboxamide]], for which, in experiment [1] (setting [4]), the IC50 stood at 8 µM.
As to `CCOC(=O)CCc1c(SSc2[nH]c3c(C)cccc3c2CCC(=O)OCC)[nH]c2c(C)cccc12` [Compound 46, bis[ethyl 7-methylindolyl-3-propanoate-(2)] disulfide], in experiment [1] (setting [6]), the IC50 was found to be 2.7 µM. Besides, the inhibition at 100 µM in experiment [2] amounted to 11.4%.
Regarding `COC(=O)CCc1c(SSc2[nH]c3ccccc3c2CCC(=O)OC)[nH]c2ccccc12` [Compound 39], the IC50 in experiment [1] (setting [6]) is 7.4 µM; in experiment [2] (setting [5]) it was 20.6 µM.
For `O=C(O)CCC1C(=S)Nc2ccccc21` (stereo not drawn) [Compound 7, 3-(2-thioxo-3-indolinyl)propanoic acid] the same measures were 94 µM and 1.3 µM.
As for `Cn1c(SSc2c(C(=O)Nc3ccccc3)c3c(Cl)cccc3n2C)c(C(=O)Nc2ccccc2)c2c(Cl)cccc21` [Compound 72, bis[N-phenyl 4-chloro-1-methylindolyl-3-carboxamide-(2)] disulfide], the inhibition at 100 µM was determined as 47% in experiment [2] and 22% in experiment [3].
In the case of `COC(=O)CCCc1c(SSc2c(CCCC(=O)OC)c3ccccc3n2C)n(C)c2ccccc12` [Compound 68, bis[methyl 1-methylindolyl-3-butanoate-(2)]disulfide], in experiment [1] (setting [6]), the IC50 amounted to 1.8 µM. Also, the inhibition at 100 µM in experiment [2] came out at 14%.
For `CCOC(=O)CCC1C(=S)Nc2ccccc21` (stereo not drawn) [Compound 10, ethyl 3-(2-thioxo-3-indolinyl) propanoate] the same measures were 34 µM and 10%.
Take `O=C(CCc1c(SSc2[nH]c3ccccc3c2CCC(=O)NCCc2ccccc2)[nH]c2ccccc12)NCCc1ccccc1` [Compound 54, 2,2'-dithiobis[N-(2-phenylethyl) -3-(3-indolyl)propanamide]]: the concentration for half-maximal inhibition (IC50) in experiment [2] (setting [5]) was found to be 29 µM. The inhibition at 100 µM in experiment [3] is 20.6%.
Turning to `Cc1c(SSc2c(C)c3ccccc3n2C)n(C)c2ccccc12` [Compound 103], the IC50 in experiment [1] (setting [4]) is 3.8 µM. Besides, the inhibition at 100 µM in experiment [2] came out at 7%.
`Cc1ccc2[nH]c(SSc3[nH]c4ccc(C)cc4c3CCC(=O)O)c(CCC(=O)O)c2c1` [Compound 41, bis[5-methylindolyl-3-propanoic acid-(2)]disulfide]: the half-inhibitory concentration (IC50) in experiment [1] (setting [6]) was more than 25 µM; in experiment [2] (setting [5]), 8.4 µM.
Turning to `COC(=O)CCCC1C(=S)N(C)c2ccccc21` (stereo not drawn) [Compound 18, methyl 4-(1-methyl-2-thioxo-3-indolyl)butanoate], the inhibition at 100 µM worked out at 2% in experiment [2] and 9% in experiment [3].
Turning to `COC(=O)CC1C(=S)Nc2ccccc21` (stereo not drawn) [Compound 3, methyl 2-(2-thioxo-3-indolinyl)acetate], the inhibition at 100 µM amounted to 43% in experiment [2] and 8.6% in experiment [3].
Regarding `CNC(=O)c1c([Se][Se]c2[nH]c3ccccc3c2C(=O)NC)[nH]c2ccccc12` [Compound 133, 2,2'-diselenobis[N-methyl-1H-indole-3-carboxamide]], the results for the concentration for half-maximal inhibition (IC50) in experiment [1] (setting [4]) and in experiment [2] (read-out: IC50 (EGFR TK)) were less than 5 µM and 13 µM, respectively.
Turning to `O=C(O)CCc1c(SSc2[nH]c3ccccc3c2CCC(=O)O)[nH]c2ccccc12` [Compound 36, bis[indolyl-3-propanoic acid-(2)]disulfide], the half-maximal inhibitory concentration (IC50) in experiment [1] (setting [6]) worked out at 59 µM; in experiment [2] (setting [5]) it was 4.8 µM.
`COC(=O)CCc1c(SSc2c(CCC(=O)OC)c3ccccc3n2C)n(C)c2ccccc12` [Compound 40, 2,2'-dithiobis[methyl 3-(1-methyl-3-indolyl)propanoate]]: the IC50 in experiment [1] (setting [6]) was 5.2 µM. Further, in experiment [2], the inhibition at 100 µM was found to be 16.3%.
`N#CCc1c(SSc2[nH]c3ccccc3c2CC#N)[nH]c2ccccc12` [Compound 35, 2,2'-dithiobis[3-indolylacetonitrile]]: the IC50 in experiment [2] (setting [5]) was 16.5 µM. Also, the inhibition at 100 µM in experiment [3] worked out at 33.9%.
